Reference: paper PMC9867837 (Cancer letters, 2022)
≈ marks a conversion by molar mass, not a printed value. Where “and” joins values, the source holds several entries; their conditions need not be identical. Equal entries are not always repeated. Where two headings read alike, the source gives them in different places.

Assays:
pY705Stat3 = target: T1, pY705Stat3 (Homo sapiens, UniProt P40763); experiment: Western blotting for pY705Stat3 in treated breast cancer cells; assay type: cell-based; conditions: for Effect on constitutive Stat3 Tyr phosphorylation (pYStat3) in cells: MDA-MB-468 and MDA-MB-231, 0–5 μM, 1 or 2 h
T1 construct: endogenous in cells
T1 sequence (P40763 whole entry): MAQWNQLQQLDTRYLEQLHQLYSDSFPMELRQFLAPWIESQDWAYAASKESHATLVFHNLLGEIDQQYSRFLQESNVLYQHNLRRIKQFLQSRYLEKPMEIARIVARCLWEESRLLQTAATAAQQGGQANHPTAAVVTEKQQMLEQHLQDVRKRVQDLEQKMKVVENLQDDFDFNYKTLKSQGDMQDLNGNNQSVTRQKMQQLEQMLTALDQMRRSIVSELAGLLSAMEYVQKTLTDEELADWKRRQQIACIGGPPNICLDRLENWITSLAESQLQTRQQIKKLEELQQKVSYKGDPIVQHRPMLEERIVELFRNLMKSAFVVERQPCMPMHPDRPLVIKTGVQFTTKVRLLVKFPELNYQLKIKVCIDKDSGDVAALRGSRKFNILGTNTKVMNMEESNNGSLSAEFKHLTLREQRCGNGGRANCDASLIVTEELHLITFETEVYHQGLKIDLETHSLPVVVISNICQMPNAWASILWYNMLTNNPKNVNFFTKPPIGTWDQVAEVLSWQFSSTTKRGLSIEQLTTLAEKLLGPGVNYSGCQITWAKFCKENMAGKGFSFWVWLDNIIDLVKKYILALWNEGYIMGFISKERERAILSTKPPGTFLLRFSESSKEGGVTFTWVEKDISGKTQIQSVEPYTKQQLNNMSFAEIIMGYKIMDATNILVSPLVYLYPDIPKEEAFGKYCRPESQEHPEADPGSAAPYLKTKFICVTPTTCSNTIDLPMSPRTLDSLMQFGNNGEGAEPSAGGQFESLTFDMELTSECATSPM
Protocol: These studies were performed as previously described. Details are presented in Supplementary Information, “Methods”.
Nuclear extracts and whole-cell lysates were prepared, and samples of equal total protein were subjected to Stat3 DNA-binding assay/EMSA analysis using the hSIE probe, or to SDS/PAGE and Western blotting analysis for pY705Stat3, Stat3, or GAPDH [11, 12]. […] Depending on the concentration (1, 3, or 5 μM), the inhibitory effects of the azetidine compounds were observed relatively early, at 30–60 min, on both Stat3 DNA-binding activity (Fig. 4C) and Tyr phosphorylation (Fig. 4D, pY705Stat3).
During confluence of cultured cells, the cell-to-cell adhesion and cadherin engagement trigger increased Tyr705Stat3 phosphorylation in a variety of cell lines. To investigate the impact of cell-to-cell adhesion and cadherin engagement, parallel studies were conducted in which cells in culture were untreated or treated with 1 or 2 μM H182 for 0.5–48 h, and whole-cell lysates prepared and immunoprobed for pTyr705Stat3. […] After 48-h incubation, the cell confluency of the DMSO-treated samples reached to around 60% for MDA-MB-468 cells and 80% for MDA-MB-231 cells. […] In the untreated cells, Stat3 (red punctate) staining was predominantly localized in the nucleus of the tumor cells, with weak presence in the cytoplasm (Fig. 4F, 0, Stat3, red merged with blue DAPI nuclear staining). […] Total Stat3 protein levels in all of these studies were unchanged, and GAPDH, tubulin or β-actin levels show equal protein loading. The percent changes induced by H182 treatment on Stat3 DNA-binding activity and phosphorylation in the treated cells are shown.
These studies were performed as previously described [1 -3] . Briefly, snap-frozen tumor tissues or cultured cells treated or not were harvested and whole-cell or tissue lysates were prepared in radioimmunoprecipitation assay (RIPA) buffer. Samples of equal total protein were subjected to SDS - PAGE and immunoblotting analysis. Primary antibodies used were anti- Stat3, pY705-Stat3, pS727Stat3, […]
Akt, pT202/Y204Erk1/2 (p44/42), Erk1/2, PARP , caspase 3, c-Myc, survivin, VEGF, β-actin, α/β-tubulin, and GAPDH. For the studies of the effects of cell density and confluence on pY705Stat3, cells were seeded […] in culture dishes. The next day, cells were untreated (DMSO control, […]
0.1%) or treated at the same time with 1 or 2 µM H182, allowed to incubate for the indicated time and then harvested for whole-cell lysate preparation and SDS -PAGE / immunoblotting analy sis. After 48-h incubation, the cell confluency of the DMSO-treated samples reached to around 60% for MDA-MB -468 cells and 80% for MDA- MB-231 cells. […]

Solubility = assay type: physicochemical
Protocol: Solubility, human (HLM) and mouse liver microsomal (MLM), and plasma stability studies were performed by Eurofins Cerep Panlabs and Eurofin Discovery Services (www.eurofins.com/PharmaDiscovery), while protein binding studies were performed by Sanford Burnham Prebys Chemical Biology & Drug Discovery Core using standard protocols.

MDA-MB-231 cells [1] = experiment: CyQuant viable cell number assay, MDA-MB-231; assay type: cell-based, human; conditions: Homo sapiens, MDA-MB-231, read-out: IC50 viable cell numbers, MDA-MB-231; CyQuant, 72 h
Protocol: CyQuant assay was performed to evaluate compounds as previously reported. Details are presented in Supplementary Information, “Methods”. […]
1.2.6. Cell viability assays
CyQuant assay was performed to evaluate compounds as previously reported [1 -3] . Briefly, cells (5 x 10^3 per well, 100 µl) in culture in 96-well plates were treated once with 0 -10 µM concentrations of H120, H105, […]
concentration of H182 for 6 h and then treated with 0- 100 nM docetaxel or 0-20 µM cisplatin for a total of 72 h. Viable cell numbers were assessed by a CyQuant cell proliferation kit according to the manufacturer’s instructions (Thermo/Life Technologies Corp, Carlsbad, CA). Viable cell numbers were normalized to that of DMSO (control)-treated samples. […]

MDA-MB-231 cells [2] = experiment: Annexin V/propidium iodide staining with flow cytometry; assay type: cell-based, human; conditions: 3 μM H182 for 3 h
Protocol: For apoptosis analysis, annexin V/propidium iodide (PI) staining was performed. Details are presented in Supplementary Information, “Methods”. […]
software and Prism GraphPad software (San Diego, CA), using the one-site model. Control experiments were carried out by titration H182 into buffer, buffer into Stat3, and buffer into buffer. The three controls were used as a composite for the ITC experiment to subtract the heat of dilution and background noise from […]
1.2.11. Wound healing assay for migration
Studies were performed as previously reported [1 -3]. Briefly, cells were cultured in 6-well plates, and the monolayer of cells was scratched with a p10 pipet tip. Subsequently, fresh medium containing inhibitors or DMSO (control) was added, and then immediately, cells were imaged with a Canon Powershot A640 digital camera under a phase contrast with the Zeiss Axiovert 200 inverted microscope at 10X magnification and noted as the zero time-point. Following culture for 22 h to allow cells to migrate into the denuded area, the culture was then imaged again at the same field that was marked on the plate.
1.2.12. Annexin V binding/apoptosis and flow cytometric analysis
For apoptosis analysis, annexin V/propidium iodide (PI) staining was performed. […] The annexin V- and/or PI-positive cells were analyzed by FACScan flow cytometer (BD Biosciences) and data was analyzed using FlowJo software. […]

CYP2C9 = target: T2, CYP2C9 (Homo sapiens, UniProt P11712); experiment: CYP inhibition, CYP2C9; assay type: in vitro ADME; conditions: read-out: CYP Inhibition CYP2C9 % Inh at 10 μM
T2 construct: Eurofins-CEREP (contract research organisation that ran the assay)
T2 sequence (P11712 whole entry, species assumed): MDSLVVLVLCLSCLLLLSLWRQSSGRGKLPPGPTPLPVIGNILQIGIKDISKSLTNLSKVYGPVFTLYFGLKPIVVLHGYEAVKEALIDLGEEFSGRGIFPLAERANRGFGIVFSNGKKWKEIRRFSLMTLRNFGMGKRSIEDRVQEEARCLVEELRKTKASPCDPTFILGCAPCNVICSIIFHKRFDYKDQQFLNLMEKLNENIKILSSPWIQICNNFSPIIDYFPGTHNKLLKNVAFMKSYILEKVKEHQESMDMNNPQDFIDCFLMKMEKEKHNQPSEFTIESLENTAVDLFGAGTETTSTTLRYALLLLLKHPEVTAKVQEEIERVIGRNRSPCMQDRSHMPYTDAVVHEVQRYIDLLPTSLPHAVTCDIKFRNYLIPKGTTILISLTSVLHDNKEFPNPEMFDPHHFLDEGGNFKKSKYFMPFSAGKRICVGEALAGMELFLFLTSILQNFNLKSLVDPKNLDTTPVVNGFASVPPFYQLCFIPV
Protocol: The in vivo activity of a compound is influenced by its overall bioavailability, which is also driven by parameters, such as solubility, permeability, and metabolism. […] These values are all above the industry cut-off of 60 μg/ml. […] It has CLint in human hepatocytes of 16 μL/min/10^6 cells, which falls into moderate stability range [43].

[3] = target: T3, norepinephrine transporter (NET) (Homo sapiens, UniProt P23975); experiment: CEREP SafetyScreen44, norepinephrine transporter; assay type: binding
T3 construct: Eurofins-CEREP (SafetyScreen44 panel)
T3 sequence (P23975 whole entry): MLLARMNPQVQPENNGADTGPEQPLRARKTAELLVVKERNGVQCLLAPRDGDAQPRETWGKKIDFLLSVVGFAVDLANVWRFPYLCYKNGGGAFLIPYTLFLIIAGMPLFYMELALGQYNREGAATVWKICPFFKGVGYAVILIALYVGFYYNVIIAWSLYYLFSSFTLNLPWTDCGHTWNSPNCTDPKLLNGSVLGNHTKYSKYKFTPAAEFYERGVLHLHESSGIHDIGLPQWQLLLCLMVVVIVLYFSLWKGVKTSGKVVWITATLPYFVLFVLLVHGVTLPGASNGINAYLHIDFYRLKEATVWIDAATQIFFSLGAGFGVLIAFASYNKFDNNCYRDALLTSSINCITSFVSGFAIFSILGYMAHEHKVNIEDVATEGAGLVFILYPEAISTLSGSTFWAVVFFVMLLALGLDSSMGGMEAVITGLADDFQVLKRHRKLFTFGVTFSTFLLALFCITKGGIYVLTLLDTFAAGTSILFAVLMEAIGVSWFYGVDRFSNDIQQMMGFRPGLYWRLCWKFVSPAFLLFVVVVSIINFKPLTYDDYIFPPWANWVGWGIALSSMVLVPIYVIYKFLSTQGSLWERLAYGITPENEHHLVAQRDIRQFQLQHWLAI

[4] = aqueous buffer, PBS pH 7.4, read-out: Solubility PBS pH 7.4

Structure (SMILES) | Effect on constitutive Stat3 Tyr phosphorylation (pYStat3) in cells (pY705Stat3) | solubility (Solubility; [4]) [µg/mL] | Solubility SGF (Solubility; simulated gastric fluid) [µg/mL] | Solubility SIF (Solubility; simulated intestinal fluid) [µg/mL] | IC50 (MDA-MB-231 cells [1]) [nM] | Duration of inhibition of Stat3 activation (pY705Stat3) (pY705Stat3; 3 μM H182) | Effect on EGF-induced pY705Stat3 (pY705Stat3; MDA-MB-468 cells, 1–3 μM H182) | Annexin V/PI double-positive staining (MDA-MB-231 cells [2]) | inhibition at 10 µM (CYP2C9) [%] | solubility (Solubility; simulated gastric fluid, read-out: Solubility SGF) | solubility (Solubility; simulated intestinal fluid, fassgf or other biorelevant, read-out: Solubility SIF) [µg/mL] | inhibition at 10 µM ([3]; 10 μM H182) [%] | IC50 ([3]; SafetyScreen44 follow-up dose-response) [nM]
O=C([C@H]1CCN1S(=O)(=O)c1c(F)c(F)c(F)c(F)c1F)N(Cc1ccc(C2CCCCC2)cn1)c1ccc2c(=O)[nH]cnc2c1 [Compound H172] | dose-dependent inhibition | 6.3 (≈ 9.73 µM) | 104 (≈ 161 µM) | 123 (≈ 190 µM) | 3300 | – | – | – | – | – | – | – | –
O=C([C@H]1CCN1S(=O)(=O)c1c(F)c(F)c(F)c(F)c1F)N(Cc1ccc(C2CCCCC2)cn1)c1ccc2c(=O)[nH]ncc2c1 [Compound H182] | dose-dependent inhibition | 3 (≈ 4.63 µM) | – | – | 1000 | sustained inhibition of Stat3 activation for up to 48 h | inhibited EGF-induced pY705Stat3 in MDA-MB-468 cells in a dose-dependent manner | roughly 12% | 33 | 130 µg/mL and 132 µg/mL | 128 (≈ 198 µM) | > 80 | 400
